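Assay format: 96-well plates, 48-hour exposure. GI50 = concentration required for 50% inhibition of growth.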 Calls of active or inactive are those of the source. No stated cut-off is given here; in the data, active = GI50 up to about 1.1 µM and inactive = higher.
Tests used:
Assay in all cases: NCI-60 cell line screen, 48 h
[1] = system: A549
[2] = system: DU-145
[3] = system: A498
[4] = system: EKVX
[5] = system: NCI-H522
[6] = system: NCI-H23
[7] = system: HOP-62
[8] = system: IGROV-1
[9] = system: UACC-62
[10] = system: MCF7
[11] = system: NCI-H226
[12] = system: NCI-H460
[13] = system: K562
[14] = system: SN12C
[15] = system: UO-31
[16] = system: OVCAR-3
[17] = system: PC-3
[18] = system: HT-29
[19] = system: TK-10

| SMILES | GI50 [1] | GI50 [2] | GI50 [3] | GI50 [4] | GI50 [5] | GI50 [6] | GI50 [7] | GI50 [8] | GI50 [9] | GI50 [10] | GI50 [11] | GI50 [12] | GI50 [13] | GI50 [14] | GI50 [15] | GI50 [16] | GI50 [17] | GI50 [18] | GI50 [19] |
| --- | --- | --- | --- | --- | --- | --- | --- | --- | --- | --- | --- | --- | --- | --- | --- | --- | --- | --- | --- |
| [O-][S+](c1ccccc1)c1ccc(/N=N/O)nc1 (stereo not drawn) | > 100 µM (inactive) | > 100 µM (inactive) | > 100 µM (inactive) | > 100 µM (inactive) | > 100 µM (inactive) | > 100 µM (inactive) | > 100 µM (inactive) | > 100 µM (inactive) | > 100 µM (inactive) | > 100 µM (inactive) | 69.8 µM (inactive) | > 100 µM (inactive) | > 100 µM (inactive) | > 100 µM (inactive) | > 100 µM (inactive) | > 100 µM (inactive) | 78.5 µM (inactive) | > 100 µM (inactive) | > 100 µM (inactive) |
| COC(O)C12OC3CO[Si](C(C)C)(C(C)C)O[Si](C(C)C)(C(C)C)OC3C1Oc1nc(=O)ccn12 (stereo not drawn) | 12.6 µM (inactive) | 16.3 µM (inactive) | 17.3 µM (inactive) | 13.6 µM (inactive) | 4.88 µM (inactive) | 14.3 µM (inactive) | 13.7 µM (inactive) | 12.3 µM (inactive) | 11 µM (inactive) | 10.5 µM (inactive) | 17.7 µM (inactive) | 11.3 µM (inactive) | 1.52 µM (inactive) | 13.3 µM (inactive) | 15.8 µM (inactive) | 11.3 µM (inactive) | 4.7 µM (inactive) | 6.73 µM (inactive) | 14.3 µM (inactive) |
| CC(=O)NC1C(OC2C(CO)OC(OCC3OC(n4ccc(N)nc4=O)C(O)C3O)C(NC(C)=O)C2O)OC(CO)C(O)C1O (stereo not drawn) | > 100 µM (inactive) | > 100 µM (inactive) | > 100 µM (inactive) | > 100 µM (inactive) | 9.2 µM (inactive) | 97.9 µM (inactive) | > 100 µM (inactive) | > 100 µM (inactive) | > 100 µM (inactive) | > 94.6 µM (inactive) | > 100 µM (inactive) | > 89.3 µM (inactive) | > 100 µM (inactive) | > 100 µM (inactive) | > 100 µM (inactive) | > 100 µM (inactive) | > 100 µM (inactive) | > 100 µM (inactive) | > 100 µM (inactive) |
| CCCCCCSCC/C(C)=N\OC | > 100 µM (inactive) | > 100 µM (inactive) | > 100 µM (inactive) | > 100 µM (inactive) | > 100 µM (inactive) | > 100 µM (inactive) | > 100 µM (inactive) | > 100 µM (inactive) | > 100 µM (inactive) | > 100 µM (inactive) | > 100 µM (inactive) | > 100 µM (inactive) | > 100 µM (inactive) | > 100 µM (inactive) | > 100 µM (inactive) | > 100 µM (inactive) | > 100 µM (inactive) | > 100 µM (inactive) | > 100 µM (inactive) |
| CC1=CC(C)C/C=C/C2C3OC3(C)C(C)C3C(Cc4c[nH]c5ccccc45)NC(=O)C23C(=O)C=CC(=O)C1O (stereo not drawn) | 8.3 µM (inactive) | 14.1 µM (inactive) | 0.213 µM (active) | 1.19 µM (inactive) | 1.4 µM (inactive) | 14.5 µM (inactive) | 6.79 µM (inactive) | 11.1 µM (inactive) | 15.2 µM (inactive) | 5.78 µM (inactive) | 12.9 µM (inactive) | 12.8 µM (inactive) | 3.06 µM (inactive) | 8.77 µM (inactive) | 1.96 µM (inactive) | 5.26 µM (inactive) | 11.6 µM (inactive) | 1.42 µM (inactive) | 1.53 µM (inactive) |
| CCOC(=O)COC1=Nc2cc(OC)c(OC)c3nc(Cl)cc(c23)C1=O | 6.18 µM (inactive) | 1.82 µM (inactive) | 11.4 µM (inactive) | 0.716 µM (active) | 1.6 µM (inactive) | 2.25 µM (inactive) | 3.07 µM (inactive) | 2.37 µM (inactive) | 1.78 µM (inactive) | 1.7 µM (inactive) | 11.1 µM (inactive) | 18.8 µM (inactive) | 1.2 µM (inactive) | 1.8 µM (inactive) | 1.84 µM (inactive) | 1.75 µM (inactive) | 1.79 µM (inactive) | 2.29 µM (inactive) | 1.96 µM (inactive) |
| O=C1C(Cl)=C(Cl)C(=O)C2=C1C1c3ccccc3C2c2ccccc21 | 99.1 µM (inactive) | > 100 µM (inactive) | > 100 µM (inactive) | > 100 µM (inactive) | 18.7 µM (inactive) | 46.3 µM (inactive) | 28.9 µM (inactive) | > 100 µM (inactive) | 30.5 µM (inactive) | 71.4 µM (inactive) | > 100 µM (inactive) | 32.5 µM (inactive) | 38.6 µM (inactive) | > 100 µM (inactive) | 47.6 µM (inactive) | 36.1 µM (inactive) | > 100 µM (inactive) | > 100 µM (inactive) | 83.9 µM (inactive) |

From ChEMBL document CHEMBL1201862, “PubChem BioAssay data set” (2004)
